# Results reported in US12472168B2, “Ring-fused thiazolino 2-pyridones, methods for preparation thereof and their use in the treatment and/or prevention of a disease involving gram-positive bacteria” (Quretech Bio AB, priority 2017, dated 2025).
# What was measured:
# [1] = tested on: vancomycin resistant E. faecalis V583; experiment: Combination with Vancomycin in vivo, mouse model of CAUTI, V583 (vancomycin resistant); set-up: species or system Enterococcus faecalis; conditions: C57BL/6Ncr mice
# Procedure: (§1) Mice used in this study were six-week-old female wild-type C57BL/6Ncr mice. Mice were anesthetized by inhalation of isoflurane and implanted with a 5-mm length of platinum-cured silicone catheter. Then, mice were infected immediately following catheter implantation with 50 μl of ˜2×10^7 CFU of E. faecalis OG1RF (FIG. 10A and FIG. 10B) or V583 (FIG. 11A and FIG. 11B) in PBS (1 mL) was introduced in the bladder lumen by transurethral inoculation. […] Mice were sacrificed at 48 hours post-infection by cervical dislocation after anaesthesia inhalation, and the bladders were aseptically harvested. Subsequently, the silicone implant was retrieved from the bladder. Catheters were placed in 1×PBS (1 mL), sonicated for 10 min, to detach E. faecalis and bladders were homogenized in 1×PBS (1 mL). For bacterial enumeration on catheters and bladder, samples were serially diluted and plated on BHI for CFU enumeration.
# E. faecalis OG1RF [2] = experiment: Combination with Vancomycin in vivo, mouse model of CAUTI, OG1RF (vancomycin sensitive); set-up: species or system Enterococcus faecalis; conditions: C57BL/6Ncr mice
# Procedure: as §1
# [3] = tested on: Vancomycin Resistant Enterococcus (VRE) strain V583; experiment: Effect of combination of Example 11 and Vancomycin on VRE (V583), CFU counts; assay type: cell-based; conditions: for avg. CFU: VRE V583 OD 0.001, 18 h
# Procedure: The mixture (200 μL) was incubated at 37° C. for 18 h Controls were performed without bacteria-vehicle (DMSO), Vancomycin vehicle (water) and BHI controls that use those as treatment to the inoculum, to ensure no previous bacterial contamination in the reagents. Bacterial CFU were counted as standard methods using serial dilution plated on BHI plates to determine the effect of each treatment.
# MRSA [4] = experiment: Effect of compound alone on MRSA, CFU counts; assay type: cell-based, Methicillin-resistant Staphylococcus aureus; conditions: compound 25 μM alone, 37° C. 18 h
# Procedure: (§2) The mixture (200 μL) was incubated at 37° C. for 18 h. A control without the test compound was performed in the same way.
# E. faecalis = experiment: MIC and MBC assays; assay type: cell-based; conditions: Enterococcus faecalis, compound alone, no antibiotic; for MIC: overnight (18 hrs)
# Procedure: (§3) MIC was defined by the lowest concentration of the test compound that inhibits visible growth of pathogen of interest. The optical density of the pathogen of interest culture was measured by OD600.
# (§4) MBC was determined colony forming units (CFUs) enumeration by serially diluting and plating bacterial cultures on BHI plates.
# (§5) Thus, no antibiotic was used in Table 2.
# Streptococcus = experiment: MIC and MBC assays; assay type: cell-based; conditions: compound alone, no antibiotic
# Procedure: as §3, §4, §5
# MRSA [5] = experiment: Effect of combination with Oxacillin on MRSA, CFU counts; assay type: cell-based, Methicillin-resistant Staphylococcus aureus; conditions: compound 25 μM in combination with Oxacillin 9 μM, 37° C. 18 h
# Procedure: as §2
# MRSA [6] = experiment: Minimum Inhibitory Concentration (MIC) and Minimum Bactericidal Concentration (MBC) assays; assay type: cell-based, Methicillin-resistant Staphylococcus aureus; conditions: Staphylococcus aureus, compound alone, no antibiotic; for MIC: 18 h, overnight (18 hrs), read-out: MIC
# Procedure: as §3, §4, §5
# E. faecalis OG1RF [7] = experiment: Stand alone activity in vivo, mouse model of catheter-associated urinary tract infection (CAUTI); set-up: species or system Enterococcus faecalis; conditions: C57BL/6Ncr mice; 10 mg/kg intraperitoneally 24 hours post-infection; sacrificed 48 hours post-infection; compound alone
# Procedure: as §1, with “OG1RF” for “OG1RF (FIG. 10A and FIG. 10B) or V583 (FIG. 11A and FIG. 11B)”, “mL).” for “mL). For bacterial enumeration on catheters and bladder, samples were serially diluted and plated on BHI for CFU enumeration.”
# Mice used in this study were six-week-old female wild-type C57BL/6Ncr mice. Mice were anesthetized by inhalation of isoflurane and implanted with a 5-mm length of platinum-cured silicone catheter.
# Mice were sacrificed at 48 hours post-infection by cervical dislocation after anaesthesia inhalation, and the bladders were aseptically harvested. Subsequently, the silicone implant was retrieved from the bladder. Catheters were placed in 1×PBS (1 mL), sonicated for 10 min, to detach E. faecalis and bladders were homogenized in 1×PBS (1 mL). For bacterial enumeration on catheters and bladder, samples were serially diluted and plated on BHI for CFU enumeration.
# E. faecalis OG1RF [8] = experiment: Combination with Gentamicin in vivo, mouse model of CAUTI, OG1RF; set-up: species or system Enterococcus faecalis; conditions: C57BL/6Ncr mice
# Procedure: as §1, with “catheter.” for “catheter. Then, mice were infected immediately following catheter implantation with 50 μl of ˜2×10^7 CFU of E. faecalis OG1RF (FIG. 10A and FIG. 10B) or V583 (FIG. 11A and FIG. 11B) in PBS (1 mL) was introduced in the bladder lumen by transurethral inoculation.”
# E. faecalis OG1RF [9] = experiment: Effect of combination of Gentamicin and Example 11 on E. faecalis OG1RF in vitro (FIG. 7); assay type: cell-based, Enterococcus faecalis; conditions: agent alone
# [10] = 3 mg/kg intraperitoneally 24 hours post-infection, agent alone
# [11] = combination of Vancomycin and Example 49, 3 mg/kg intraperitoneally
# [12] = 2 mg/kg intraperitoneally 24 hours post-infection, agent alone
# [13] = combination of Gentamicin and Example 49, 2 mg/kg intraperitoneally
Compound,"reduction of bacterial titers in the bladder [1, 10]","reduction of bacterial titers on the catheter [1, 10]",reduction of bacterial titers in the bladders (E. faecalis OG1RF [2]; [10]),reduction of bacterial titers on the catheters (E. faecalis OG1RF [2]; [10]),CFUs/ml (MRSA [4]; MRSA OD 0.001) [CFUs/ml],CFUs/ml (MRSA [4]; MRSA OD 0.1) [CFUs/ml],CFUs/ml (MRSA [4]; MRSA OD 1) [CFUs/ml],MBC (E. faecalis) [µM],MIC (E. faecalis) [µM],MBC (Streptococcus) [µM],CFUs/ml (MRSA [5]; MRSA OD 0.1) [CFUs/ml],CFUs/ml (MRSA [5]; MRSA OD 1) [CFUs/ml],MIC (MRSA [6]) [µM],MBC (MRSA [6]) [µM],reduction of bacterial titers in the bladders (E. faecalis OG1RF [8]; [12]),reduction of bacterial titers on catheters (E. faecalis OG1RF [8]; [12]),also measured
"CN[C@H](CC(C)C)C(=O)N[C@H]1C(=O)N[C@@H](CC(N)=O)C(=O)N[C@H]2C(=O)N[C@H]3C(=O)N[C@H](C(=O)N[C@H](C(=O)O)c4cc(O)cc(O)c4-c4cc3ccc4O)[C@H](O)c3ccc(c(Cl)c3)Oc3cc2cc(c3O[C@@H]2O[C@H](CO)[C@@H](O)[C@H](O)[C@H]2O[C@H]2C[C@](C)(N)[C@H](O)[C@H](C)O2)Oc2ccc(cc2Cl)[C@H]1O [Vancomycin, vancomycin]",0.3 log units,no effect,did not result in reduction,did not result in reduction,,,,,,,,,,,,,"avg. CFU ([3]; Experiment 1, Vancomycin 1 μg/ml alone (Control)): 1.20E+09 CFU; avg. CFU ([3]; Experiment 1, Vancomycin 2 μg/ml alone (Control)): 1.35E+09 CFU; avg. CFU ([3]; Experiment 1, Vancomycin 4 μg/ml alone (Control)): 5.00E+08 CFU; avg. CFU ([3]; Experiment 1, Vancomycin 8 μg/ml alone (Control)): 4.00E+08 CFU; avg. CFU ([3]; Experiment 1, Vancomycin 16 μg/ml alone (Control)): 3.00E+08 CFU; avg. CFU ([3]; Experiment 1, Vancomycin 32 μg/ml alone (Control)): 5.50E+08 CFU; avg. CFU ([3]; Experiment 1, Vancomycin 64 μg/ml alone (Control)): 4.00E+07 CFU; avg. CFU ([3]; Experiment 2, Vancomycin 1 μg/ml alone (Control)): 1.70E+09 CFU; avg. CFU ([3]; Experiment 2, Vancomycin 2 μg/ml alone (Control)): 1.40E+09 CFU; avg. CFU ([3]; Experiment 2, Vancomycin 4 μg/ml alone (Control)): 8.50E+08 CFU; avg. CFU ([3]; Experiment 2, Vancomycin 8 μg/ml alone (Control)): 8.50E+08 CFU; avg. CFU ([3]; Experiment 2, Vancomycin 16 μg/ml alone (Control)): 4.50E+08 CFU; avg. CFU ([3]; Experiment 2, Vancomycin 32 μg/ml alone (Control)): 1.95E+06 CFU; avg. CFU ([3]; Experiment 2, Vancomycin 64 μg/ml alone (Control)): 6.00E+04 CFU; effect on the bacterial growth ([3]; Vancomycin alone at a concentration below 64 μg/ml, VRE V583): no or no substantial effect"
"CCCCOc1ccc(-c2sc3c(OC)c(Cc4cccc5ccccc45)cc(=O)n3c2C(=O)O)cc1C [Example 9, 8-(4-Butoxy-3-methyl-phenyl)-5-methoxy-4-[(1-naphthyl)methyl]-2-oxo-7-thia-1-azabicyclo[4.3.0]nona-3,5,8-triene-9-carboxylic acid]",,,,,8.0E+04,4.4E+06,5.0E+07,12.5,39,8,2.6E+04,3E+06,17,37,,,
"CCCCCOc1ccc(-c2sc3c(OC)c(Cc4cccc5ccccc45)cc(=O)n3c2C(=O)O)cc1C [Example 8, 5-Methoxy-4-[(1-naphthyl)methyl]-2-oxo-8-[4-(pentyloxy)-3-methyl-phenyl]-7-thia-1-azabicyclo[4.3.0]nona-3,5,8-triene-9-carboxylic acid]",,,,,4.0E+05,6.0E+06,6.0E+07,12.5,25,7,1.7E+04,1E+06,12,13,,,
"CCCCCOc1ccc(-c2sc3c(OC)c(Cc4c5ccccc5cc5ccccc45)cc(=O)n3c2C(=O)O)cc1C [Example 49, 7-(anthracen-9-ylmethyl)-8-methoxy-2-(3-methyl-4-(pentyloxy)phenyl)-5-oxo-thiazolo[3,2-a]pyridine-3-carboxylic acid]",about 0.5 log units,no effect,about 1 log unit,about 1 log unit,,,,,,,,,,,about 0.2 log units,~0.5 log units,"reduction of bacterial titers in the bladder [1, 11]: about 2 log units; reduction of bacterial titers on the catheter [1, 11]: about 1 log unit; reduction of bacterial titers in the bladder (E. faecalis OG1RF [2]; [11]): about 2 log units; reduction of bacterial titers on the catheters (E. faecalis OG1RF [2]; [11]): about 2 log units; reduction of bacterial titers in the bladder (E. faecalis OG1RF [7]): about 1.5 log units; reduction of bacterial titers on the catheters (E. faecalis OG1RF [7]): about 1.5 log units; reduction of bacterial titers in the bladder (E. faecalis OG1RF [8]; [13]): about 2 log units; reduction of bacterial titers on catheters (E. faecalis OG1RF [8]; [13]): about 1.5 log units"
gentamicin [reference compound],,,,,,,,,,,,,,,did not result in reduction,did not result in reduction,number of observed bacterial CFUs/ml (E. faecalis OG1RF [9]): did not result in a decrease
